Reference: patent US20260248927A1, “TARGETED PROTEIN DEGRADATION USING BIFUNCTIONAL COMPOUNDS THAT BIND UBIQUITIN LIGASE AND TARGET MCL-1 PROTEIN” (Captor Therapeutics S.A., priority 2022, published 2026)

What was measured:
MV4-11 cells = experiment: Cell viability assay (CellTiter-Glo), MV4-11; assay type: cell-based; conditions: Homo sapiens, MV4-11, 24 hours, 1% FBS, read-out: Average pCC50 by molecule MV4-11 (converted)
Excerpt: (§1) The effect of various compounds of the invention on the viability of MV4-11 and ARH-77 cell lines was investigated, using the CTG protocol described below.
(§2) MV4-11 cell lines are derived from acute myeloid leukaemia and it is described in the literature as a MCL-1 dependent cell line, as opposed to lymphoblast-like ARH-77 cell line, which is described as independent of MCL-1 (Tron A E et al. Nat Commun. 2018; 9: 5341; Caenepeel S et al. Cancer Discov. 2018 December; 8(12): 1582-1597).
(§3) Cells (MV4-11 or ARH-77) were seeded on […] in a growth medium with 1% FBS. Next, compound stocks were pre-diluted in DMSO and added directly to the cell culture media (final DMSO concentration: 0.5%). Compound concentrations used in this assay: 1/3 dilutions starting at 30 μM (9 to 12 points). After 24 hours of incubation, cell viability was evaluated using CellTiter-Glo Luminescent Cell Viability Assay (Promega, cat #G7572). The luminescence signal was measured using a CLARIOstar Plus Multi-Mode Microplate Reader (574-590 nm).
(§4) Results were normalized to DMSO control. Collected data were analyzed using GraphPad Prism to calculate pCC50 values.

[1] = Cell viability assay (CellTiter-Glo), ARH-77; assay type: cell-based; conditions: human, ARH-77 cells (lymphoblast-like, MCL-1 independent), ARH-77, 24 hours, 1% FBS, read-out: Average pCC50 by molecule ARH-77 (converted)
Excerpt: as §1, §2, §3, §4

[2] = target: [MCL-1]-[compound of formula (I)]—[CRBN/DDB1] (Homo sapiens, UniProt Q07820+Q96SW2); experiment: HTRF ternary complex formation assay; assay type: binding; conditions: hMcl-1 and CRBN, 180 min at 25° C.; read-out: HTRF ternary complex Average pEC50 by molecule (converted)
Procedure: The effect of the bifunctional compounds of the invention on the formation of a ternary complex composed of [MCL-1]-[compound of formula (I)]—[CRBN/DDB1] was investigated with HTRF ternary complex assay.
Mix of protein solution was prepared: • 48 nM hMcl-1 and 105.6 nM CRBN were prepared in PPI Europium detection buffer with 2 mM DTT. • Acceptor and donor stock solutions were diluted 100 times in PPI Europium detection buffer. Equal volumes of both reagents were mixed. Finally giving 3 nM of Streptavidin-Eu cryptate ([…]) and 6.67 nM of Anti-6×his-d2 ([…]).
5 μl of protein mix was dispensed to all wells. The tested compounds in dose-response were dispensed onto a white 384-well low volume plate (Greiner, 784075). DMSO was backfilled to all wells, resulting in a final DMSO content of 0.5%. Wells containing only DMSO served as a background. Next, 5 μl of solution with donor and acceptor was added to the wells.
The plate was sealed with transparent film and shaken using a VibroTurbulator for 60 sec at level 3. The plate was then spun down shortly (10 s, 1000 rcf) and incubated at 25° C. for 180 min.
The read-out was performed with plate reader (Pherastar, BMG Labtech) in time resolved fluorescence mode. Filterset: TR 337 665 620.
The results were analyzed as follows: • 1) an average of fluorescence for background signal was calculated and used as a negative control; • 2) raw fluorescence values for tested compounds were normalized against negative controls; • 3) bell shape curve was fitted to a gaussian distribution using a non-linear least squares Gauss-Newton algorithm; • 4) EC50 and pEC50 values were determined.

[MCL-1]-[compound of formula (I)]—[CRBN/DDB1], sequence (Q07820 whole entry): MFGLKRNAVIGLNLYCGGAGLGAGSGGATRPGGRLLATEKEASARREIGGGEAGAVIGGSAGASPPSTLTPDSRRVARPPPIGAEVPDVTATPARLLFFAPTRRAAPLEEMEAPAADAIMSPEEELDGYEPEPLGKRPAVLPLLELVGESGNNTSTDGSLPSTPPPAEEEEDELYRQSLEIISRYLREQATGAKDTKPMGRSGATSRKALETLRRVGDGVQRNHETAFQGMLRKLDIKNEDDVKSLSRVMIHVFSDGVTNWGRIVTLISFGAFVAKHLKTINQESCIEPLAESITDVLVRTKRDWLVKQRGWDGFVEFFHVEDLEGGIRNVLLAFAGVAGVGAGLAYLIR
[MCL-1]-[compound of formula (I)]—[CRBN/DDB1], sequence (Q96SW2 whole entry): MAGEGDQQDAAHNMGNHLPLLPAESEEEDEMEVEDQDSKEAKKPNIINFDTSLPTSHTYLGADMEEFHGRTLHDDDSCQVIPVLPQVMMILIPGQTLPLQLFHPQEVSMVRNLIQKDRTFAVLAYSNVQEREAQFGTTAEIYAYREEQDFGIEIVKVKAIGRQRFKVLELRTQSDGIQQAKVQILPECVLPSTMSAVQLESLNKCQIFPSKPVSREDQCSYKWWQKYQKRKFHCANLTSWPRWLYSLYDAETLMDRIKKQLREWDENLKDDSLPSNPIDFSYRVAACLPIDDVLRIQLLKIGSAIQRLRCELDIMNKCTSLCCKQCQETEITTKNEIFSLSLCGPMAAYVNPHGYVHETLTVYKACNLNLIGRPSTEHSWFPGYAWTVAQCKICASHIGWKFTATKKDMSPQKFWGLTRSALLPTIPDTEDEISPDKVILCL
[MCL-1]-[compound of formula (I)]—[CRBN/DDB1], sequence (Q16531 whole entry partner): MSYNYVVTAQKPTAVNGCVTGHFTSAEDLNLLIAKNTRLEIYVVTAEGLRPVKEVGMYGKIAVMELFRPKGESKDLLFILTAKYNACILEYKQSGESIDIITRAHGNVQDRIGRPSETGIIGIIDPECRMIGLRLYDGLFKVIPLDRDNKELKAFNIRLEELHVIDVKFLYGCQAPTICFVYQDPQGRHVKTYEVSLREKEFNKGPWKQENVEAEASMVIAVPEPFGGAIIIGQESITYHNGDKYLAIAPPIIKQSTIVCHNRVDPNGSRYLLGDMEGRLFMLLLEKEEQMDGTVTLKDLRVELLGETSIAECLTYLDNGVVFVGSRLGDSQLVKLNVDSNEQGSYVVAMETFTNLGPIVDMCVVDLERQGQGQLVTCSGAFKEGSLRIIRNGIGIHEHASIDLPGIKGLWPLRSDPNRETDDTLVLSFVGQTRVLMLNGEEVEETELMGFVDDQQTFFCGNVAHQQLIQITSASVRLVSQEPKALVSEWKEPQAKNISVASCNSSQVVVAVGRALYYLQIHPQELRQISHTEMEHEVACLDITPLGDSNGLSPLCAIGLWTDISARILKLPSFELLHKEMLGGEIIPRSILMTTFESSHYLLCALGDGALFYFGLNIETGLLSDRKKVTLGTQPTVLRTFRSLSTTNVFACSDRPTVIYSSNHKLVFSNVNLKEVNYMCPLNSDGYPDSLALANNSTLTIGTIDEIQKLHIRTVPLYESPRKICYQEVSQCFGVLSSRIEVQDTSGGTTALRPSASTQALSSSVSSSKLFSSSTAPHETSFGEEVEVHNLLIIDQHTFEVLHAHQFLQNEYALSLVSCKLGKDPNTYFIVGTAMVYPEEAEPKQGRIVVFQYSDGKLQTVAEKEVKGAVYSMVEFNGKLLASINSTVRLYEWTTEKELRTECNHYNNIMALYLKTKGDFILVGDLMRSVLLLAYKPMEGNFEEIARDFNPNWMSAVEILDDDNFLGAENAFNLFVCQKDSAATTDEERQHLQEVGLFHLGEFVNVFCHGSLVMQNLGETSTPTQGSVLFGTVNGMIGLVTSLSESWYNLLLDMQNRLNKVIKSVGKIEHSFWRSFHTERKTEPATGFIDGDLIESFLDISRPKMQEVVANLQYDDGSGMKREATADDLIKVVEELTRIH

EC50 [2] [nM] | SMILES | CC50 (MV4-11 cells) [nM] | CC50 at 24 h [1] [nM]
< 31.6 | Cc1nn(C)c(C)c1-c1c(Cl)ccc2c(CCCOc3cccc4cc(F)ccc34)c(C(=O)O)n(CCN3CCC(CN4CCN(c5ccc6c(c5)C(C)N(C5CCC(=O)NC5=O)C6=O)CC4)CC3)c12 (mixture of isomers) [Compound 145, 6-Chloro-1-(2-(4-((4-(2-(2,6-dioxopiperidin-3-yl)-3-methyl-1-oxoisoindolin-5-yl)piperazin-1-yl)methyl)piperidin-1-yl)ethyl)-3-(3-((6-fluoronaphthalen-1-yl)oxy)propyl)-7-(1,3,5-trimethyl-1H-pyrazol-4-yl)-1H-indole-2-carboxylic acid] | < 100 | > 10000
< 100 | Cc1nn(C)c(C)c1-c1c(Cl)ccc2c(CCCOc3cccc4cc(F)ccc34)c(C(=O)O)n(CCN3CCN(C(=O)Cn4c(C)nc5c(C(=O)NC6CCC(=O)NC6=O)ccc(F)c54)CC3)c12 (stereo not shown) [Compound 1, 6-Chloro-1-(2-(4-(2-(4-((2,6-dioxopiperidin-3-yl)carbamoyl)-7-fluoro-2-methyl-1H-benzo[d]imidazol-1-yl)acetyl)piperazin-1-yl)ethyl)-3-(3-((6-fluoronaphthalen-1-yl)oxy)propyl)-7-(1,3,5-trimethyl-1H-pyrazol-4-yl)-1H-indole-2-carboxylic acid] | < 100 | > 10000
< 100 | Cc1nc2c(C(=O)NC3CCC(=O)NC3=O)cc(OCC(=O)N3CCN(CCn4c(C(=O)O)c(CCCOc5cccc6cc(F)ccc56)c5ccc(Cl)c(-c6c(C)nn(C)c6C)c54)CC3)cc2[nH]1 (stereo not shown) [Compound 2, 6-Chloro-1-(2-(4-(2-((4-((2,6-dioxopiperidin-3-yl)carbamoyl)-2-methyl-1H-benzo[d]imidazol-6-yl)oxy)acetyl)piperazin-1-yl)ethyl)-3-(3-((6-fluoronaphthalen-1-yl)oxy)propyl)-7-(1,3,5-trimethyl-1H-pyrazol-4-yl)-1H-indole-2-carboxylic acid] | < 100 | > 10000
< 100 | Cc1nc2c(C(=O)NC3CCC(=O)NC3=O)cc(OCCC(=O)N3CCN(CCn4c(C(=O)O)c(CCCOc5cccc6cc(F)ccc56)c5ccc(Cl)c(-c6c(C)nn(C)c6C)c54)CC3)cc2[nH]1 (stereo not shown) [Compound 3, 6-Chloro-1-(2-{4-[3-({4-[(2,6-dioxopiperidin-3-yl)carbamoyl]-2-methyl-1H-1,3-benzodiazol-6-yl}oxy)propanoyl]piperazin-1-yl}ethyl)-3-{3-[(6-fluoronaphthalen-1-yl)oxy]propyl}-7-(1,3,5-trimethyl-1H-pyrazol-4-yl)-1H-indole-2-carboxylic acid] | < 100 | > 31600
< 100 | Cc1nc2c(OCC(=O)N3CCN(CCn4c(C(=O)O)c(CCCOc5cccc6cc(F)ccc56)c5ccc(Cl)c(-c6c(C)nn(C)c6C)c54)CC3)cccc2cc1C1CCC(=O)NC1=O (stereo not shown) [Compound 4, 6-Chloro-1-{2-[4-(2-{[3-(2,6-dioxopiperidin-3-yl)-2-methylquinolin-8-yl]oxy}acetyl)piperazin-1-yl]ethyl}-3-{3-[(6-fluoronaphthalen-1-yl)oxy]propyl}-7-(1,3,5-trimethyl-1H-pyrazol-4-yl)-1H-indole-2-carboxylic acid] | < 316 | > 10000
< 100 | Cc1nc2ccc(C(=O)NCC(=O)N3CCN(CCn4c(C(=O)O)c(CCCOc5cccc6cc(F)ccc56)c5ccc(Cl)c(-c6c(C)nn(C)c6C)c54)CC3)cc2cc1C1CCC(=O)NC1=O (stereo not shown) [Compound 5, 6-Chloro-1-{2-[4-(2-{[3-(2,6-dioxopiperidin-3-yl)-2-methylquinolin-6-yl]formamido}acetyl)piperazin-1-yl]ethyl}-3-{3-[(6-fluoronaphthalen-1-yl)oxy]propyl}-7-(1,3,5-trimethyl-1H-pyrazol-4-yl)-1H-indole-2-carboxylic acid] |  | > 10000
< 316 | Cc1nn(C)c(C)c1-c1c(Cl)ccc2c(CCCOc3cccc4cc(F)ccc34)c(C(=O)O)n(CCN3CCN(C(=O)COc4cc(N(C)C)cc5c4CN(C4CCC(=O)NC4=O)C5=O)CC3)c12 (stereo not shown) [Compound 13, 6-Chloro-1-{2-[4-(2-{[6-(dimethylamino)-2-(2,6-dioxopiperidin-3-yl)-1-oxo-2,3-dihydro-1H-isoindol-4-yl]oxy}acetyl)piperazin-1-yl]ethyl}-3-{3-[(6-fluoronaphthalen-1-yl)oxy]propyl}-7-(1,3,5-trimethyl-1H-pyrazol-4-yl)-1H-indole-2-carboxylic acid] |  | > 10000
 | CCc1c(OCC(=O)N2CCN(CCn3c(C(=O)O)c(CCCOc4cccc5cc(F)ccc45)c4ccc(Cl)c(-c5c(C)nn(C)c5C)c43)CC2)cccc1C(=O)NC1CCC(=O)NC1=O (stereo not shown) [Compound 24, 6-Chloro-1-{2-[4-(2-{3-[(2,6-dioxopiperidin-3-yl)carbamoyl]-2-ethylphenoxy}acetyl)piperazin-1-yl]ethyl}-3-{3-[(6-fluoronaphthalen-1-yl)oxy]propyl}-7-(1,3,5-trimethyl-1H-pyrazol-4-yl)-1H-indole-2-carboxylic acid] |  | > 10000
 | CCc1cc(OCC(=O)N2CCN(CCn3c(C(=O)O)c(CCCOc4cccc5cc(F)ccc45)c4ccc(Cl)c(-c5c(C)nn(C)c5C)c43)CC2)ccc1C(=O)NC1CCC(=O)NC1=O (stereo not shown) [Compound 25, 6-Chloro-1-(2-(4-(2-(4-((2,6-dioxopiperidin-3-yl)carbamoyl)-3-ethylphenoxy)acetyl)piperazin-1-yl)ethyl)-3-(3-((6-fluoronaphthalen-1-yl)oxy)propyl)-7-(1,3,5-trimethyl-1H-pyrazol-4-yl)-1H-indole-2-carboxylic acid] |  | > 3160
< 100 | Cc1nn(C)c(C)c1-c1c(Cl)ccc2c(CCCOc3cccc4cc(F)ccc34)c(C(=O)O)n(CCN3CCN(CC(=O)NCc4ccc5c(c4)CN(C4CCC(=O)NC4=O)C5=O)CC3)c12 (stereo not shown) [Compound 26, 6-Chloro-1-(2-{4-[({[2-(2,6-dioxopiperidin-3-yl)-1-oxo-2,3-dihydro-1H-isoindol-5-yl]methyl}carbamoyl)methyl]piperazin-1-yl}ethyl)-3-{3-[(6-fluoronaphthalen-1-yl)oxy]propyl}-7-(1,3,5-trimethyl-1H-pyrazol-4-yl)-1H-indole-2-carboxylic acid] |  | > 31600
< 100 | Cc1cc(OCCCc2c(C(=O)O)n(CCN3CCN(CC(=O)NCc4ccc5c(c4)CN(C4CCC(=O)NC4=O)C5=O)CC3)c3c(-c4c(C)nn(C)c4C)c(Cl)ccc23)cc(C)c1Cl (stereo not shown) [Compound 27, 6-Chloro-3-[3-(4-chloro-3,5-dimethylphenoxy)propyl]-1-(2-{4-[({[2-(2,6-dioxopiperidin-3-yl)-1-oxo-2,3-dihydro-1H-isoindol-5-yl]methyl}carbamoyl)methyl]piperazin-1-yl}ethyl)-7-(1,3,5-trimethyl-1H-pyrazol-4-yl)-1H-indole-2-carboxylic acid] |  | 
< 100 | Cc1nn(C)c(C)c1-c1c(Cl)ccc2c(CCCOc3cccc4cc(F)ccc34)c(C(=O)O)n(CCN3CCN(CC(=O)Nc4cccc5c4CN(C4CCC(=O)NC4=O)C5=O)CC3)c12 (stereo not shown) [Compound 29, 6-Chloro-1-{2-[4-({[2-(2,6-dioxopiperidin-3-yl)-1-oxo-2,3-dihydro-1H-isoindol-4-yl]carbamoyl}methyl)piperazin-1-yl]ethyl}-3-{3-[(6-fluoronaphthalen-1-yl)oxy]propyl}-7-(1,3,5-trimethyl-1H-pyrazol-4-yl)-1H-indole-2-carboxylic acid] |  | > 10000
< 31.6 | Cc1nc2c(NCC(=O)N3CCN(CCn4c(C(=O)O)c(CCCOc5cccc6cc(F)ccc56)c5ccc(Cl)c(-c6c(C)nn(C)c6C)c54)CC3)cccc2cc1N1CCC(=O)NC1=O [Compound 146, 6-Chloro-1-(2-(4-((3-(2,4-dioxotetrahydropyrimidin-1(2H)-yl)-2-methylquinolin-8-yl)glycyl)piperazin-1-yl)ethyl)-3-(3-((6-fluoronaphthalen-1-yl)oxy)propyl)-7-(1,3,5-trimethyl-1H-pyrazol-4-yl)-1H-indole-2-carboxylic acid] | < 100 | 
